Source: US20220251625A1, “NOVEL DIAGNOSTIC MARKER FOR PANCREATIC CANCER” (URTESTE S.A., priority 2019, published 2022)
Where “and” joins values, the source holds several entries; their conditions need not be identical. Equal values may be shown once. Numbered stars: 1 amine (or outer) side, 2 acyl side, 3 side chain; on linkers, the order of the positions; unused ones are H or OH. Square brackets hold non-standard residues; d marks the D form. Ends that are not written are not given here. Benzoyl(5-NH,2-NO2) = O=C(c1cc(N[*:1])ccc1[N+](=O)[O-])[*:2]; 2Abz = Nc1ccccc1C(=O)O

Key:
Assay type in all cases: biochemical, human
[1] = system: proteolytic enzymes in urine; experiment: Hydrolysis of chromogenic peptide substrate in urine samples, absorbance at 405 nm; parameters: rate of hydrolysis of substrate: unit not given here; details: for rate of hydrolysis of substrate: triplicate, 37° C., pH 8.0, 405 nm
Experimental: Arabic numbers indicate the number of the selected urine sample. […] The result indicates the absence of proteolytic enzymes characteristic of pancreatic cancer.
Arabic numbers indicate the number of the selected urine sample. A similar result as described above for FIG. 1 is obtained.
The study on the application of new compounds was performed on a group of 10 patients diagnosed with pancreatic cancer. For this purpose, the compound with formula 2: ABZ-Thr-Thr-Ala-Arg-ANB-NH2 or formula 3: ABZ-Thr-Thr-Ala-Arg-pNA was dissolved in dimethyl sulfoxide (at a concentration of 0.5 mg/mL); 50 μL of this solution was mixed with 120 μl buffer (200 mM Tris-HCl, pH 8.0) and 80 μL of urine of a person with pancreatic cancer. The measurement was made in a 96-well plate designed for measuring absorbance, and each sample was analysed in triplicate at 37° C. The duration of the measurement was 60 minutes. During the measurement, the wavelength characteristic of the released chromophore (ANB-NH2 or pNA) was monitored at 405 nm (range 380-430 nm).
As a result of the measurement, the colour of the solution increased over time in all urine samples from patients diagnosed with pancreatic cancer. The observed absorbance increase over time was different for each of the tested samples.

[2] = system: proteolytic enzymes in urine; experiment: RP HPLC analysis of substrate hydrolysis in urine of a person diagnosed with pancreatic cancer; details: urine from a person diagnosed with pancreatic cancer
Experimental: A: ABZ-Thr-Thr-Ala-Arg-ANB NH2 substrate in 200 mM Tris-HCl buffer, pH 8.0. B: Hydrolysis of ABZ-Thr-Thr-Ala-Arg-ANB NH2 substrate in urine of patients diagnosed with pancreatic cancer.

[3] = system: proteolytic enzymes in urine; experiment: Degree of substrate hydrolysis versus pH of the reaction environment; parameters: degree of substrate hydrolysis: unit not given here; details: for degree of substrate hydrolysis: triplicate
Experimental: Tested pH values are indicated on the x-axis. The relationship between proteolytic activity and pH of reaction environment was assessed.

[4] = system: proteolytic enzymes in urine; experiment: Hydrolysis of chromogenic peptide substrate in urine samples, absorbance at 405 nm; details: urine samples from healthy individuals (15 samples)
[5] = urine sample 1, patient diagnosed with pancreatic cancer
[6] = urine sample 3, patient diagnosed with pancreatic cancer
[7] = urine sample 4, patient diagnosed with pancreatic cancer
[8] = urine sample 5, patient diagnosed with pancreatic cancer
[9] = urine sample 6, patient diagnosed with pancreatic cancer
[10] = urine sample 7, patient diagnosed with pancreatic cancer
[11] = urine sample 8, patient diagnosed with pancreatic cancer
[12] = urine sample 9, patient diagnosed with pancreatic cancer
[13] = urine sample 10, patient diagnosed with pancreatic cancer

Substance	rate of hydrolysis of substrate [1, 5]	rate of hydrolysis of substrate [1, 6]	rate of hydrolysis of substrate [1, 7]	rate of hydrolysis of substrate [1, 8]	rate of hydrolysis of substrate [1, 9]	rate of hydrolysis of substrate [1, 10]	rate of hydrolysis of substrate [1, 11]	rate of hydrolysis of substrate [1, 12]	rate of hydrolysis of substrate [1, 13]	cleavage products by RP HPLC [2]	further results
ABZ-Thr-Thr-Ala-Arg-pNA	0.22 and 0.189 and 0.2109	0.01632 and 0.01669 and 0.01723	0.01727 and 0.01636 and 0.01044	0.05734 and 0.05944 and 0.06152	0.05416 and 0.05476 and 0.05487	0.02666 and 0.02332 and 0.025	0.02045 and 0.02486 and 0.02345	0.01947 and 0.01797 and 0.01896	0.1167 and 0.1146 and 0.1052	break down into the ABZ-Thr-Thr-Ala-Arg peptide fragment and chromophore	rate of hydrolysis of substrate ([1]; urine sample 2, patient diagnosed with pancreatic cancer): 0.07457 and 0.07826 and 0.07178
ABZ-Thr-Thr-Ala-Arg-ANB-NH2 ([2Abz]TTAR-{Benzoyl(5-NH,2-NO2)-NH2}) [chromogenic peptide; ABZ is 2-aminobenzoic acid, ANB-NH2 is amide of 5-amino-2-nitrobenzoic acid]	0.128 and 0.152 and 0.2109	0.07457 and 0.07826 and 0.07178	0.03727 and 0.03636 and 0.03044	0.02734 and 0.01944 and 0.02312	0.04416 and 0.04476 and 0.04487	0.02666 and 0.02332 and 0.025	0.02045 and 0.02486 and 0.02345	0.00647 and 0.00797 and 0.00596	0.08668 and 0.1146 and 0.08522	break down into the ABZ-Thr-Thr-Ala-Arg peptide fragment and chromophore	relationship between proteolytic activity and pH of reaction environment [3]: maximum activity at alkaline pH; degree of substrate hydrolysis ([3]; pH 3): 0; degree of substrate hydrolysis ([3]; pH 4): 0; degree of substrate hydrolysis ([3]; pH 5): 0; degree of substrate hydrolysis ([3]; pH 6): 0; degree of substrate hydrolysis ([3]; pH 7): 0; degree of substrate hydrolysis ([3]; pH 8): 0.07661 and 0.07534 and 0.09735; degree of substrate hydrolysis ([3]; pH 9): 0; increase in absorbance (hydrolysis of the test compound) [4]: does not lead to an increase in absorbance; hydrolysis of the substrate / increase of colour (absorbance) over time ([1]; urine of patients diagnosed with pancreatic cancer (samples 1-10)): all samples 1-10 disintegrated
